In ChEMBL document CHEMBL4619796, “Discovery of 3-Quinazolin-4(3H)-on-3-yl-2,N-dimethylpropanamides as Orally Active and Selective PI3Kα Inhibitors” (ACS Med Chem Lett, 2020):

How the values were obtained:
Homo sapiens [1] = species: Homo sapiens; test: (§1) Selectivity ratio of IC50 for PI3Kgamma (unknown origin) using PIP2:3PS peptide as substrate preincubated for 15 mins followed by ATP addition at Km concentration and further incubated for 120 mins by ADP-Glo assay to IC50 for PI3Kalpha (unknown origin) using PIP2:3PS peptide as substrate preincubated for 15 mins followed by ATP addition at Km concentration and further incubated for 150 mins by ADP-Glo assay
[2] = Inhibition of PI3K in human MCF7 cells assessed as reduction in AKT phosphorylation at residue S473 incubated for 2 hrs followed by insulin addition by ELISA; assay type: cell-based; conditions: MCF7, 2 h
Homo sapiens [3] = species: Homo sapiens; test: as §1, with “PI3Kdelta” for “PI3Kgamma”
Homo sapiens [4] = species: Homo sapiens; test: as §1, with “PI3Kbeta” for “PI3Kgamma”
[5] = molecular target: Phosphatidylinositol 4,5-bisphosphate 3-kinase catalytic subunit alpha isoform (Homo sapiens, UniProt P42336); test: Inhibition of PI3Kalpha (unknown origin) using PIP2:3PS peptide as substrate preincubated for 15 mins followed by ATP addition at Km concentration and further incubated for 150 mins by ADP-Glo assay
Sequence of Phosphatidylinositol 4,5-bisphosphate 3-kinase catalytic subunit alpha isoform (P42336 whole entry, canonical isoform): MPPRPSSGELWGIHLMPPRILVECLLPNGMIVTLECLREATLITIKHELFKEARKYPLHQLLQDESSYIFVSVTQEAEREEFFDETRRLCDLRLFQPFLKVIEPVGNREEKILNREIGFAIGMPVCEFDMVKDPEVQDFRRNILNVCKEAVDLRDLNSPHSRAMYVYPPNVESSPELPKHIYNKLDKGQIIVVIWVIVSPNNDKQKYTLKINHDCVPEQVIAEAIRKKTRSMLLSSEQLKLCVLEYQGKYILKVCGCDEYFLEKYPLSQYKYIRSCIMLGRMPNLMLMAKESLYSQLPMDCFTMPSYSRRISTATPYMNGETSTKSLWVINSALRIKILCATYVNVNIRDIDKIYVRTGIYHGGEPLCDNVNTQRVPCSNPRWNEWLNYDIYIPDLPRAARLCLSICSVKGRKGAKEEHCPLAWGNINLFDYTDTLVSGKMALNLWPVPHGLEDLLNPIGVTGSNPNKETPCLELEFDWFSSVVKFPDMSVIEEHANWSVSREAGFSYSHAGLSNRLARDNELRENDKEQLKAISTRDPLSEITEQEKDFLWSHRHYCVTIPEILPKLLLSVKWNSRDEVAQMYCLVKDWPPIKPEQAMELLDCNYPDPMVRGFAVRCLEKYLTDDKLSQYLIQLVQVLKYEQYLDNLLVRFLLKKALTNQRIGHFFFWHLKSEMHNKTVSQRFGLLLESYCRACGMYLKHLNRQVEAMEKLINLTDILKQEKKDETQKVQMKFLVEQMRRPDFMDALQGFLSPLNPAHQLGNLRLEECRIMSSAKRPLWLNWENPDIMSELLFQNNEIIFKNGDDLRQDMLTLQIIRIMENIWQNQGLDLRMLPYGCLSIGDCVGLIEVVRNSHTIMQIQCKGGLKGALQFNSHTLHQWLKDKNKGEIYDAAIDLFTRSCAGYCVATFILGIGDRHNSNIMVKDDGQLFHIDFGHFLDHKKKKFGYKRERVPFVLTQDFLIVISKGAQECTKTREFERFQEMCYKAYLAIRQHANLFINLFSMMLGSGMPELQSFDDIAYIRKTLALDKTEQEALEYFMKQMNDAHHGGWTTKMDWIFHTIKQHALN

[6] = Dose normalized AUC (0 to last) in BALB/c mouse at 10 mg/kg, po by HPLC analysis; assay type: ADME, organism-based; conditions: in vivo
[7] = Cmax in BALB/c mouse at 10 mg/kg, po by HPLC analysis; assay type: ADME, organism-based; set-up: dose 10 mg/kg, route oral; conditions: in vivo

SMILES | Ratio IC50 (Homo sapiens [1]) | IC50 [2] [nM] | Ratio IC50 (Homo sapiens [3]) | Ratio IC50 (Homo sapiens [4]) | IC50 [5] [nM] | AUClast/dose [6] | Cmax [7] [µM]
CNC(=O)[C@H](C)Cn1cnc2ccc(-c3cnc(OC(C)C)c(NS(=O)(=O)c4ccc(F)cc4Cl)c3)cc2c1=O | – | 387 | – | – | – | – | –
CNC(=O)[C@H](C)Cn1cnc2ccc(-c3cnc(COC)c(NS(=O)(=O)c4ccc(F)cc4Cl)c3)cc2c1=O | – | > 1000 | – | – | > 1000 | – | –
CCC(CC)NC(=O)[C@H](C)Cn1cnc2ccc(-c3cnc(OC)c(NS(=O)(=O)c4ccc(F)cc4Cl)c3)cc2c1=O | 7.92 | 373 | 3.11 | 259 | 19.6 | – | –
COc1ncc(-c2ccc3ncn(C[C@@H](C)C(=O)N4CCOCC4)c(=O)c3c2)cc1NS(=O)(=O)c1ccc(F)cc1Cl | 0.71 | – | 0.38 | 18.3 | 11.5 | – | –
COc1ncc(-c2ccc3ncn(CC(N)C(N)=O)c(=O)c3c2)cc1NS(=O)(=O)c1ccc(F)cc1Cl (racemic) | 7.39 | 134 | 4.75 | 33.9 | – | – | –
CNC(=O)[C@H](C)Cn1cnc2ccc(-c3cnc(OC)c(NS(=O)(=O)c4ccc(Cl)c(Cl)c4)c3)cc2c1=O | – | – | – | 6.62 | 10 | – | –
CNC(=O)[C@H](C)Cn1cnc2ccc(-c3cnc(CO)c(NS(=O)(=O)c4ccc(F)cc4Cl)c3)cc2c1=O | 12.5 | > 1000 | 17.9 | > 334 | 30 | – | –
CNC(=O)[C@H](C)Cn1cnc2ccc(-c3cnc(OC)c(NS(=O)(=O)c4cccnc4)c3)cc2c1=O | – | > 1000 | – | – | – | – | –
CNC(=O)[C@H](C)Cn1cnc2ccc(-c3cnc(N)c(NS(=O)(=O)c4ccc(F)cc4Cl)c3)cc2c1=O | – | > 1000 | – | 283 | 19.3 | – | –
COc1ncc(-c2ccc3ncn(CC4(C(N)=O)CC4)c(=O)c3c2)cc1NS(=O)(=O)c1ccc(F)cc1Cl | 3.61 | 39.9 | 0.35 | 14.4 | – | – | –
COc1ncc(-c2ccc3ncn(C[C@@H](C)C(=O)N(C)C(C)C)c(=O)c3c2)cc1NS(=O)(=O)c1ccc(F)cc1Cl | 1.06 | – | 0.78 | 16.6 | 19.6 | – | –
CNC(=O)[C@H](C)Cn1cnc2ccc(-c3cnc(OC4CC4)c(NS(=O)(=O)c4ccc(F)cc4Cl)c3)cc2c1=O | – | 55.3 | – | – | – | – | –
COc1ncc(-c2ccc3ncn(CC(C(N)=O)C(C)C)c(=O)c3c2)cc1NS(=O)(=O)c1ccc(F)cc1Cl (racemic) | – | 125 | – | 32.6 | – | – | –
CCC(Cn1cnc2ccc(-c3cnc(OC)c(NS(=O)(=O)c4ccc(F)cc4Cl)c3)cc2c1=O)C(N)=O (racemic) | – | 52.3 | – | 19.3 | – | – | –
CNC(=O)C(C)Cn1cnc2ccc(-c3cnc(OC(F)(F)F)c(NS(=O)(=O)c4ccc(F)cc4Cl)c3)cc2c1=O (racemic) | – | > 1000 | – | 94.9 | – | – | –
CCOc1ncc(-c2ccc3ncn(C[C@@H](C)C(=O)NC)c(=O)c3c2)cc1NS(=O)(=O)c1ccc(F)cc1Cl | – | 116 | – | 153 | 13.7 | – | –
CNC(=O)[C@H](C)Cn1cnc2ccc(-c3cnc(OC)c(NS(=O)(=O)c4cc(C(F)(F)F)cc(C(F)(F)F)c4)c3)cc2c1=O | 17.3 | – | 19.4 | 109 | 20.8 | – | –
CCN(CC)C(=O)[C@H](C)Cn1cnc2ccc(-c3cnc(OC)c(NS(=O)(=O)c4ccc(F)cc4Cl)c3)cc2c1=O | 1.04 | – | 0.63 | 5.97 | 25.8 | – | –

The remaining compounds from weak to strong by IC50 [5], led by results:

Ratio IC50 (Homo sapiens [1]) | IC50 [2] [nM] | Ratio IC50 (Homo sapiens [3]) | Ratio IC50 (Homo sapiens [4]) | IC50 [5] [nM] | AUClast/dose [6] | Cmax [7] [µM] | SMILES
– | – | – | 59.5 | 8.4 | – | – | CNC(=O)[C@H](C)Cn1cnc2ccc(-c3cnc(N(C)C)c(NS(=O)(=O)c4ccc(F)cc4Cl)c3)cc2c1=O
3.27 | 80.4 | 2.12 | 186 | 8.4 | 302 nM·h | 4.73 | COc1ncc(-c2ccc3ncn(C[C@@H](C)C(=O)NC4CCC4)c(=O)c3c2)cc1NS(=O)(=O)c1ccc(F)cc1Cl
6.38 | 81.1 | 3.03 | 424 | 8 | – | – | COc1ncc(-c2ccc3ncn(C[C@@H](C)C(=O)NCC(C)C)c(=O)c3c2)cc1NS(=O)(=O)c1ccc(F)cc1Cl
9.87 | 61.5 | 3.41 | 107 | 6.9 | – | – | COc1ncc(-c2ccc3ncn(C[C@@H](C)C(=O)NC(C)C)c(=O)c3c2)cc1NS(=O)(=O)c1ccc(F)cc1Cl
– | – | – | 116 | 6.2 | – | – | COc1ncc(-c2ccc3ncn(C[C@@H](C)C(=O)NC4CC4(F)F)c(=O)c3c2)cc1NS(=O)(=O)c1ccc(F)cc1Cl (some centres undefined)
14.4 | 347 | 13.8 | 309 | 6 | – | – | CCc1ncc(-c2ccc3ncn(C[C@@H](C)C(=O)NC)c(=O)c3c2)cc1NS(=O)(=O)c1ccc(F)cc1Cl
9.87 | 56.1 | 3.41 | 107 | 5.5 | – | – | COc1ncc(-c2ccc3ncn(C[C@@H](C)C(=O)NCC(F)(F)F)c(=O)c3c2)cc1NS(=O)(=O)c1ccc(F)cc1Cl
9.22 | 72 | 6.06 | 229 | 4.9 | 723 nM.hr/(mg/kg) | 9.13 | COCCNC(=O)[C@H](C)Cn1cnc2ccc(-c3cnc(OC)c(NS(=O)(=O)c4ccc(F)cc4Cl)c3)cc2c1=O
10 | – | 4.52 | 146 | 4.3 | – | – | CNC(=O)[C@H](C)Cn1cnc2ccc(-c3cnc(OC)c(NS(=O)(=O)c4c(C)noc4C)c3)cc2c1=O
– | – | – | 43.1 | 4.1 | – | – | CNC(=O)[C@H](C)Cn1cnc2ccc(-c3cnc(OC)c(NS(=O)(=O)c4sccc4C)c3)cc2c1=O
6.28 | 40.5 | 5.63 | 187 | 3.5 | – | – | CCNC(=O)[C@H](C)Cn1cnc2ccc(-c3cnc(OC)c(NS(=O)(=O)c4ccc(F)cc4Cl)c3)cc2c1=O
12.3 | 19 | 9.16 | 106 | 3.4 | 1370 nM·h | 5 | CNC(=O)[C@H](C)Cn1cnc2ccc(-c3cnc(OC)c(NS(=O)(=O)c4ccc(F)cc4)c3)cc2c1=O
21 | 397 | 17 | 406 | 3 | – | – | CNC(=O)[C@H](C)Cn1cnc2ccc(-c3cnc(C)c(NS(=O)(=O)c4ccc(F)cc4Cl)c3)cc2c1=O
3.15 | – | 2.69 | 46.6 | 2.7 | – | – | COc1ncc(-c2ccc3ncn(CC(F)(F)C(N)=O)c(=O)c3c2)cc1NS(=O)(=O)c1ccc(F)cc1Cl
5.44 | 170 | 2.61 | 224 | 2.7 | – | – | COc1ncc(-c2ccc3ncn(C[C@@H](C)C(=O)NC4CC4)c(=O)c3c2)cc1NS(=O)(=O)c1ccc(F)cc1Cl
7.41 | 67.4 | 7.61 | 162 | 2.5 | – | – | COc1ncc(-c2ccc3ncn(C[C@@H](C)C(=O)NCCF)c(=O)c3c2)cc1NS(=O)(=O)c1ccc(F)cc1Cl
– | – | – | – | 2.3 | – | – | CNC(=O)[C@@H](C)Cn1cnc2ccc(-c3cnc(OC)c(NS(=O)(=O)c4ccc(F)cc4Cl)c3)cc2c1=O
– | 190 | – | 262 | 2.1 | – | – | COc1ncc(-c2ccc3ncn(C[C@@H](C)C(=O)NC4COC4)c(=O)c3c2)cc1NS(=O)(=O)c1ccc(F)cc1Cl
6.34 | 339 | 6.8 | 151 | 1.7 | – | – | COc1ncc(-c2ccc3ncn(C[C@@H](C)C(=O)NCCO)c(=O)c3c2)cc1NS(=O)(=O)c1ccc(F)cc1Cl
3.94 | 16.8 | 3.34 | 59 | 1.2 | – | – | COc1ncc(-c2ccc3ncn(CCC(N)=O)c(=O)c3c2)cc1NS(=O)(=O)c1ccc(F)cc1Cl
– | 9.43 | 1.91 | 30 | 1.1 | – | – | COc1ncc(-c2ccc3ncn(CCCC(N)=O)c(=O)c3c2)cc1NS(=O)(=O)c1ccc(F)cc1Cl
– | 972 | – | 196 | 0.6 | – | – | CNC(=O)C(C)Cn1cnc2ccc(-c3cnc(C(F)(F)F)c(NS(=O)(=O)c4ccc(F)cc4Cl)c3)cc2c1=O (racemic)
7.4 | 188 | 3.4 | 130 | 0.5 | – | – | COc1ncc(-c2ccc3ncc(NC(=O)N4CCC[C@H]4C(N)=O)c(=O)n3c2)cc1NS(=O)(=O)c1ccc(F)cc1Cl
11.7 | 10.9 | 2.08 | 115 | 0.5 | – | – | CNC(=O)[C@H](C)Cn1cnc2ccc(-c3cnc(OC)c(NS(=O)(=O)c4sc(C)nc4C)c3)cc2c1=O
